Data set [1] concerns the target T1, human CB1 receptor (hCB1) (Homo sapiens, UniProt P21554).
T1 construct: host or cells: Chinese Hamster Ovary (CHO) cells
Nature of the data set: cAMP accumulation assay (Lance TR-FRET) in CHO-hCB1 cells. In kind it is cell-based. As to conditions: for hCB1 cAMP Efficacy: % of the maximum CP55940 (full agonist) signal; for hCB1 cAMP Efficacy / EC50 / Emax / hCB1 cAMP EC50: mean ± SEM; for EC50 / hCB1 cAMP EC50: forskolin-stimulated; for Emax: read-out: hCB1 cAMP Efficacy, % of the maximum CP55940 (full agonist) signal. Here is the method:
The cAMP assays were performed in Chinese Hamster Ovary (CHO) cells (Perkin Elmer, Cat # ES-110-C) stably expressing the human CB1 receptor (hCB1) cultured under standard cell culture conditions (37 °C, 5% carbon dioxide, DMEM media with 1% Penicillin/Streptomycin and 400 µg/mL G418) using the Lance™ assay kit and manufacturer’s instructions were closely followed (Perkin Elmer). In brief, stimulation buffer containing 1X Hank’s Balanced Salt Solution (HBSS), 5 mM HEPES, 0.1% BSA stabilizer, and 0.5 mM final IBMX was prepared and titrated to pH 7.4 at rt. Serial dilutions of the test compounds and 300 nM forskolin, both prepared at 4× the desired final concentration in stimulation buffer, were added to a 96-well white ½ area microplate (PerkinElmer). The CHO-hCB1 cells were lifted with a non-enzymatic solution (Cell-stripper, Mediatech Inc., Orlando, FL, USA), and 4000 cells were added to each well. After incubating for 30 min at room temperature, Eu-cAMP tracer and uLIGHT-anti-cAMP working solutions were added per the manufacturer’s instructions. After incubation for 1 h, the TR-FRET signal (ex 337 nm, em 620 and […]) was read on a CLARIO star multimode plate reader (BMG Biotech, Cary, NC, USA). Data were analyzed using Prism software (GraphPad, La Jolla, CA, USA). Nonlinear regression analysis was performed to fit data and obtain maximum response (Emax), EC50, correlation coefficient (r^2), and other parameters. All experiments were performed in duplicate 2–3 times to ensure reproducibility and data are reported as mean ± standard error of mean unless noted otherwise.

Data set [2] in a line: Pharmacokinetic evaluation of brain exposure in mice. Also noted: species or system C57BL/6 mice. To be noted: female, C57BL/6, mouse, in vivo, C57BL6 mice, 3 mg/kg IP; for Cmax: brain, 0.5-4 h, read-out: brain maximum (Cmax) concentration; for Kp: read-out: brain:plasma Cmax ratio. As to the method:
Female C57BL/6 mice were bred in house and used at ~10 weeks of age for pharmacokinetic (PK) testing. Three animals were tested per time point. Doses were formulated in 2% NMP in canola oil, and all compounds were delivered at 3 mg/kg by intraperitoneal injection (IP). Tissues were taken at 0.5, 1, 2, and 4 h post dose. Animals were subjected to whole body perfusion using saline prior to tissue collection. Brain samples were homogenized with 50:50 ethanol:water (1:5, v/v). Forty µL of the homogenate, 10 µL of acetonitrile, and 150 µL of 100 ng/mL reserpine in acetonitrile containing 0.1% formic acid were vortexed and centrifuged. Plasma samples were diluted with 10 µL of acetonitrile, 150 µL of 100 ng/mL reserpine in acetonitrile containing 0.1% formic acid, vortexed and centrifuged. Samples were subjected to LC/MS/MS analysis. Standards were prepared in blank samples and used for calibration curves. Chromatography was performed using a Phenomenex Luna C18 column.

A further data set has as its target hCB1 (Homo sapiens, UniProt P21554). Nature of the data set: Radioligand displacement of [3H]CP55940. As to conditions: average of 3 measurements, read-out: Binding affinity (Ki). As to the method:
Further characterization of 21 was performed using radioligand displacement of [^3H]CP55940 and equilibrium dissociation constant (Ki) value was determined as described previously. Data reported are average values from 3 measurements with <30% standard error.

Setting [3] is: hCB1 cAMP EC50, CHO cells stably expressing hCB1.
[4] abbreviates: CHO cells stably expressing hCB1, read-out: hCB1 cAMP EC50.
[5] abbreviates: CHO cells stably expressing hCB1.

“Also recorded” adds a separate entry of the source. Where two headings read alike, the source gives them in different places. Where only a bound is given, the exact number is not on record here.

The results in this text go back to paper PMC9457575 (Molecules, 2022).

What is called EC50 is the concentration that produces a half-maximal response. Broadly, the melting point is the temperature, or range, at which the solid turns liquid. The term Ki denotes the dissociation constant of the complex between target and ligand, obtained from inhibition or displacement.

T1 sequence (P21554 whole entry): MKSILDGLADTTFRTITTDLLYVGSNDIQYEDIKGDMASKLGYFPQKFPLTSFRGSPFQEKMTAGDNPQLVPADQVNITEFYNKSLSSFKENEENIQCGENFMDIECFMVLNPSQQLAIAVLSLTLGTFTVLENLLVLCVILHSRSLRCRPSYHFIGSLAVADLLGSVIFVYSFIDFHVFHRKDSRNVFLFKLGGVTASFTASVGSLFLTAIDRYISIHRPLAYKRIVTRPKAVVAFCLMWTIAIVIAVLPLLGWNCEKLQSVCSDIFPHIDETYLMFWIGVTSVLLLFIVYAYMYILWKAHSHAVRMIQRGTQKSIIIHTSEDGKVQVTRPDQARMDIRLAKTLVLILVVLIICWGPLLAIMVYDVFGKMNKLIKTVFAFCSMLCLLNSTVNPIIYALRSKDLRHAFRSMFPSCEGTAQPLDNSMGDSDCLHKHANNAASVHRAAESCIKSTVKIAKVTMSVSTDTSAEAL
Chain of hCB1 (P21554 whole entry): as above

In the case of `N#Cc1c(Oc2cccc(OS(=O)(=O)CCCC(F)(F)F)c2)cccc1C(F)(F)F` [Compound 1, 3-[2-Cyano-3-(trifluoromethyl)phenoxy]phenyl-4,4,4-trifluoro-1-butanesulfonate, reference compound], the “hCB1 cAMP Efficacy” value in data set [1] worked out at 39 ± 11%. This compound registered an EC50 in data set [1] (setting [3]) of 46 ± 5 nM. Besides, in data set [2], the Cmax is around 341 ng/mL and the Kp came out at 0.4.
In the case of `N#Cc1c(Oc2cccc(NS(=O)(=O)CCCC(F)(F)F)c2)cccc1C(F)(F)F` [Compound 4, N-{3-[2-Cyano-3-(trifluoromethyl)phenoxy]phenyl}-4,4,4-trifluorobutane-1-sulfonamide], the melting point lay in the range of 96 to 97 °C. In addition, in data set [1] (setting [4]), the EC50 worked out at 190 ± 46 nM. Besides, the Emax in data set [1] was 96%.
Consider `O=S(=O)(CCCC(F)(F)F)Nc1cccc(Oc2cccc(C(F)(F)F)c2Cl)c1` [Compound 5, N-{3-[2-Chloro-3-(trifluoromethyl)phenoxy]phenyl}-4,4,4-trifluorobutane-1-sulfonamide], for which the EC50 in data set [1] (setting [4]) stood at 175 ± 42 nM. The Emax in data set [1] was 95%.
For `N#Cc1ccccc1Oc1cccc(NS(=O)(=O)CCCC(F)(F)F)c1` [Compound 6, N-[3-(2-Cyanophenoxy)phenyl]-4,4,4-trifluorobutane-1-sulfonamide], the EC50 in data set [1] (setting [4]) is 106 ± 8 nM. In addition, the Emax in data set [1] is 95%.
`CCCCCS(=O)(=O)Nc1cccc(Oc2cccc(C(F)(F)F)c2C#N)c1` [Compound 7, N-{3-[2-Cyano-3-(trifluoromethyl)phenoxy]phenyl}pentane-1-sulfonamide]: in data set [1] (setting [4]), the EC50 came out at 248 ± 108 nM. Further, the Emax in data set [1] is 76%.
On to `N#Cc1c(Oc2cccc(NS(=O)(=O)Cc3ccccc3)c2)cccc1C(F)(F)F` [Compound 8, N-{3-[2-Cyano-3-(trifluoromethyl)phenoxy]phenyl}-1-phenylmethanesulfonamide], for which the melting point was 131 to 132 °C. The EC50 in data set [1] (setting [4]) was 228 ± 134 nM. In addition, the Emax in data set [1] was 102%.
On the same counts, the results for `O=S(=O)(Cc1ccccc1)Nc1cccc(Oc2cccc(C(F)(F)F)c2Cl)c1` [Compound 9, N-{3-[2-Chloro-3-(trifluoromethyl)phenoxy]phenyl}-1-phenylmethanesulfonamide] are 129 to 130 °C, 255 ± 62 nM and 78%.
For the compound `N#Cc1ccccc1Oc1cccc(NS(=O)(=O)Cc2ccccc2)c1` [Compound 10, N-[3-(2-Cyanophenoxy)phenyl]-1-phenylmethanesulfonamide], in data set [1] (setting [4]), the EC50 came to 164 ± 32 nM. Further, the Emax in data set [1] is 82%.
`N#Cc1c(Oc2cccc(NS(=O)(=O)Cc3ccccc3Cl)c2)cccc1C(F)(F)F` [Compound 11, 1-(2-Chlorophenyl)-N-{3-[2-cyano-3-(trifluoromethyl)phenoxy]phenyl}methanesulfonamide] displayed a melting point of 121 to 122 °C. In addition, the “hCB1 cAMP EC50” value in data set [1] (setting [5]) is “loss of activity; also recorded: Inactive”.
The compound `N#Cc1c(Oc2cccc(NS(=O)(=O)Cc3cccc(Cl)c3)c2)cccc1C(F)(F)F` [Compound 12, 1-(3-Chlorophenyl)-N-{3-[2-cyano-3-(trifluoromethyl)phenoxy]phenyl}methanesulfonamide] returned a melting point of 144 to 145 °C. In data set [1] (setting [5]), the “hCB1 cAMP EC50” value is “loss of activity; also recorded: Inactive”.
`N#Cc1c(Oc2cccc(NS(=O)(=O)Cc3ccc(Cl)cc3)c2)cccc1C(F)(F)F` [Compound 13, 1-(4-Chlorophenyl)-N-{3-[2-cyano-3-(trifluoromethyl)phenoxy]phenyl}methanesulfonamide] showed a melting point of 115 to 116 °C. Further, the “hCB1 cAMP potency compared to the unsubstituted benzylsulfonamide 8” value in data set [1] (fold more potent than 8) is “about 10 ×”. The EC50 in data set [1] (setting [3]) was 25 ± 4 nM. Also, the Emax in data set [1] is 95%.
On to `N#Cc1c(Oc2cccc(NS(=O)(=O)c3cccc(OC(F)(F)F)c3)c2)cccc1C(F)(F)F` [Compound 14, N-{3-[2-Cyano-3-(trifluoromethyl)phenoxy]phenyl}-3-(trifluoromethoxy)benzene-1-sulfonamide], for which the melting point lay in the range of 120 to 121 °C. Besides, the “hCB1 cAMP EC50” value in data set [1] (setting [5]) is reported as “Inactive”.
For the compound `N#Cc1c(Oc2cccc(NS(=O)(=O)c3ccc(OC(F)(F)F)cc3)c2)cccc1C(F)(F)F` [Compound 15, N-{3-[2-Cyano-3-(trifluoromethyl)phenoxy]phenyl}-4-(trifluoromethoxy)benzene-1-sulfonamide], the melting point is 164 to 165 °C. The “hCB1 cAMP EC50” value in data set [1] (setting [5]) is “Inactive”.
`CCCCCC(=O)Nc1cccc(Oc2cccc(C(F)(F)F)c2C#N)c1` [Compound 16, N-{3-[2-Cyano-3-(trifluoromethyl)phenoxy]phenyl}hexanamide] gave a melting point of 95 to 96 °C. Moreover, the “hCB1 cAMP EC50” value in data set [1] (setting [5]) is “Inactive”.
On to `CCCCOC(=O)Nc1cccc(Oc2cccc(C(F)(F)F)c2C#N)c1` [Compound 17, Butyl N-{3-[2-Cyano-3-(trifluoromethyl)phenoxy]phenyl}carbamate], for which the “hCB1 cAMP EC50” value in data set [1] (setting [5]) is reported as “Inactive”.
Still for that read-out and setting: next, `CCCCNC(=O)Nc1cccc(Oc2cccc(C(F)(F)F)c2C#N)c1` [Compound 18, 3-Butyl-1-{3-[2-cyano-3-(trifluoromethyl)phenoxy]phenyl}urea]: “Inactive”; `CCCCN(C)C(=O)Nc1cccc(Oc2cccc(C(F)(F)F)c2C#N)c1` [Compound 19, 3-Butyl-1-{3-[2-cyano-3-(trifluoromethyl)phenoxy]phenyl}-3-methylurea]: “Inactive”.
For the compound `N#Cc1c(Oc2cccc(NC(=O)Cc3ccccc3)c2)cccc1C(F)(F)F` [Compound 20, N-{3-[2-Cyano-3-(trifluoromethyl)phenoxy]phenyl}-2-phenylacetamide], the melting point was 136 to 137 °C. The EC50 in data set [1] (setting [4]) was 474 ± 174 nM. The Emax in data set [1] was below 20%.
`N#Cc1c(Oc2cccc(NS(=O)(=O)NC3CCCCC3)c2)cccc1C(F)(F)F` [Compound 21, N-Cyclohexyl({3-[2-cyano-3-(trifluoromethyl)phenoxy]phenyl}mamino)sulfonamide] gave a melting point of 199 to 200 °C. The Ki on hCB1 is around 1500 nM. In addition, in data set [1], the “hCB1 cAMP Efficacy” value stood at 27 ± 18% and the Emax amounted to 27%. In data set [1] (setting [3]), this compound displayed an EC50 of 139 ± 24 nM. In data set [2], the Cmax is around 75 ng/mL and the Kp was determined as 0.17.
Consider `CCCCCS(=O)(=O)Nc1ccc(Oc2cccc(C(F)(F)F)c2C#N)cc1` [Compound 22, N-{4-[2-Cyano-3-(trifluoromethyl)phenoxy]phenyl}pentane-1-sulfonamide], for which the melting point lay in the range of 94 to 95 °C. The “hCB1 cAMP EC50” value in data set [1] (setting [5]) was “Inactive”.
With `N#Cc1c(Oc2ccc(NS(=O)(=O)Cc3ccccc3)cc2)cccc1C(F)(F)F` [Compound 23, N-{4-[2-Cyano-3-(trifluoromethyl)phenoxy]phenyl}-1-phenylmethanesulfonamide], the melting point was 166 to 167 °C. Further, in data set [1] (setting [5]), the “hCB1 cAMP EC50” value is “Inactive”.
`N#Cc1c(Oc2ccc(NC(=O)Cc3ccccc3)cc2)cccc1C(F)(F)F` [Compound 24, N-{4-[2-Cyano-3-(trifluoromethyl)phenoxy]phenyl}-2-phenylacetamide] registered a melting point of 200 to 201 °C. In data set [1], the “hCB1 cAMP Efficacy” value was 36 ± 14% and the Emax is 36%. In addition, the EC50 in data set [1] (setting [4]) was found to be 366 ± 136 nM. Besides, in data set [2], the Cmax was around 730 ng/mL and the Kp was found to be 0.79.
